Measurements: patent US12691186B2, “B7-H3 miniproteins, conjugates, and uses thereof” (priority 2023, dated 2026)
Bridges are numbered along the chain shown (N, C = ends). Primed or numbered codes have the meaning given here. Where no end group is shown, it is not given here. The star is where a group is joined. DOTA = O=C(O)CN1CCN(CC(=O)O)CCN(CC(=O)*)CCN(CC(=O)O)CC1; Biotin = O=C1N[C@H]2[C@H](CS[C@H]2CCCCC(=O)*)N1; PEG4 = NCCOCCOCCOCCOCCC(=O)O; PEG4′ = not defined here

Legend:
[1] = tested on: opossum kidney proximal tubule cells; test: Proximal tubule epithelial cell (OK cell) uptake assay relative to control C4; format: cell-based
Method: Inhibition constant (Ki) of each conjugate was measured using DELFIA as described herein.

[2] = In vitro metabolic stability, kidney brush border membrane (KBBM), mouse; format: in vitro ADME; conditions: 37° C.
Description: (§1) This Example describes in vitro metabolic stability of exemplary B7-H3 miniprotein conjugates.
(§2) Pharmacokinetic assessments are described in Example 18.

[3] = In vitro metabolic stability, plasma, mouse; format: in vitro ADME; conditions: 37° C.
Description: as §1, §2

[4] = tested on: opossum kidney proximal tubule cells; test: OK-PTC uptake assay of miniprotein conjugates in presence of scaffold A decoys; format: cell-based; conditions: compound 20 μM
Method: This Example describes reduction of uptake of exemplary truncated and constrained B7-H3 miniprotein conjugates (C272, C308, C234, C394, C250, and C228) when combined with exemplary scaffold A decoys (C118, C119 and C120) as compared to no decoy. Uptake of compounds was evaluated in opossum kidney proximal tubule cells (as described in Example 5). Here, cells were treated with a compound in the presence or absence of a 20-fold molar excess of exemplary scaffold A decoys, C118, C119, and C120. Results depicting uptake of six exemplary B7-H3-targeting compounds, C272, C308, C234, C394, C250, and C228, in OK-PTC cells in the presence and absence of exemplary decoys C118, C119, and C120 (scaffold A decoys) are shown in Table 13. The B7-H3-targeting compounds were used at 20 μM and the decoys used at a 20-fold (with C272, C308, C234, C394, and C250) and 10-fold (with C228) molar excess.

[5] = tested on: >6,500 different human proteins; test: Off-target binding, cell microarray platform (Retrogenix Assay) in HEK293 cells; conditions: biotin-labeled molecules
Method: To evaluate potential off-target binding, eight biotin-labeled molecules were tested in a cell microarray platform (Charles River Lab, Retrogenix Assay) having >6,500 different human proteins spanning diverse functions and subcellular locations.
Initially, two pools of molecules were tested. Pool #1 consisted of C298, C300, C302, C304, and pool #2 consisted of C306, C308, C310, and C312 at 2 μg/mL for each molecule. To perform this assay, HEK293 cells were plated on a dish and localized spots of cells were transiently over-expressed with a cDNA encoding for one of the >6,500 targets. Included in this library were two isoforms of CD276 (B7-H3) and B7-H3 related proteins (B7-1, B7-2, B7-H1/PD-L1, and B7-H2). The molecule pools were incubated on the fixed, over-expressing cell microarrays (n=2 per protein), and binding was visualized using Alexa Fluor 647 streptavidin fluorescence. All transfection efficiencies exceeded minimum thresholds for the microarray expression targets. Preliminary interactions identified from pooled results were re-spotted in duplicates, and each of the eight compounds were tested individually (n=2) at 2 μg/mL and/or in dose response against these targets as described above to validate the interactions.
All positive control interactions were strong and passed quality control. Specific interactions observed (median SNR≥1) confirmed on-target B7-H3 binding in two different isoforms for each of the eight test molecules. These interactions with the primary target occurred after fixation and in live cells (absence of fixation). No significant additional interactions were confirmed for any test molecules outside of B7-H3, indicating high specificity for the primary target (data not shown).

[6] = In vitro metabolic stability, kidney brush border membrane preparations (KBBM); format: in vitro ADME; set-up: unit not given here; conditions: mouse kidney brush border membrane preparation, 37° C.
Method: (§3) Exemplary miniprotein conjugates were spiked into biological matrices at initial concentration between 1-2 μM. Tested matrices were varied by species (mouse, rat, human) and type (plasma, serum, and kidney brush border membrane preparations tested each from 0.625-100 μg/mL protein content). Tested conditions were incubated with TAs at 37° C. for 4 hours. At collection points of 0, 15, 30, 60, 120, 240 minutes, 50 μL of each condition were quenched by organic solvent (methanol or acetonitrile) or the addition of 4% phosphoric acid solution. Fractions of each quenched timepoint were subsequently assayed for parent TA concentration by high resolution LC-MS. Percent-parent-remaining-time plots were constructed from the ratio of each given time collection to the time-zero parent TA. Percent-parent-remaining in mouse serum and plasma for exemplary miniproteins are recorded in Table 8.

[7] = In vitro metabolic stability, plasma; format: in vitro ADME; set-up: unit not given here; conditions: 37° C.
Method: as §3

{Biotin-PEG4}-CAREKIAALSEIIWLPCLTYAQILAFIAALNDDPCQSSEILSEAKELCS-NH2 (disulfide 1-35, 17-48) [Compound C286]
% Uptake of C4 [1]: 26%

C44: B7-H3 miniprotein test article of Table 5 ({DOTA-PEG4′}-YAQEKIAALSEIIWLPNLTHGQIMAFIAALNNDPSQSSELLSEALALNDSQAPG; also: In complexed by DOTA) [Compound C44]
In vitro Stability (mouse) - KBBM [2]: >12
In vitro Stability (mouse) - Plasma [3]: >12

{Biotin-PEG4}-CAREKIAALSEIIWLPCLTYAQIKAFIAALNDDPCQSSEILSEAKELCS-NH2 (disulfide 1-35, 17-48) [Compound C284]
% Uptake of C4 [1]: 56.6%

CC[C@H](C)[C@@H]1NC(=O)[C@H](Cc2ccccc2)NC(=O)[C@H](C)NC(=O)[C@H](CCCCNC)NC(=O)[C@H]([C@@H](C)CC)NC(=O)[C@H](CCC(N)=O)NC(=O)[C@H](C)NC(=O)[C@H](Cc2ccc(O)cc2)NC(=O)[C@H]([C@@H](C)O)NC(=O)[C@H](CC(C)C)NC(=O)[C@@H]2CSSC[C@@H](C(=O)N[C@@H](CO)C(N)=O)NC(=O)[C@H](CC(C)C)NC(=O)[C@H](CCC(=O)O)NC(=O)[C@H](CCCCNC)NC(=O)[C@H](C)NC(=O)[C@H](CCC(=O)O)NC(=O)[C@H](CO)NC(=O)[C@H](CC(C)C)NC(=O)[C@H]([C@@H](C)CC)NC(=O)[C@H](CCC(=O)O)NC(=O)[C@H](CO)NC(=O)[C@H](CO)NC(=O)[C@H](CCC(N)=O)NC(=O)[C@H](CSSC[C@H](NC(=O)CCOCCOCCOCCOCCNC(=O)CCCC[C@@H]3SC[C@@H]4NC(=O)N[C@@H]43)C(=O)N[C@@H](C)C(=O)N[C@@H](CCCC[N+](C)(C)C)C(=O)N[C@@H](CCC(=O)O)C(=O)N[C@@H](CCCCN)C(=O)N[C@@H]([C@@H](C)CC)C(=O)N[C@@H](C)C(=O)N[C@@H](C)C(=O)N[C@@H](CC(C)C)C(=O)N[C@@H](CO)C(=O)N[C@@H](CCC(=O)O)C(=O)N[C@@H]([C@@H](C)CC)C(=O)N[C@@H]([C@@H](C)CC)C(=O)N[C@@H](Cc3c[nH]c4ccccc34)C(=O)N[C@@H](CC(C)C)C(=O)N3CCC[C@H]3C(=O)N2)NC(=O)[C@@H]2CCCN2C(=O)[C@H](CC(=O)O)NC(=O)[C@H](CCCCNC)NC(=O)[C@H](CC(N)=O)NC(=O)[C@H](CC(C)C)NC(=O)[C@H](CCCCNC)NC(=O)[C@H](C)NC1=O [Compound C308]
% Uptake reduction in the presence of a decoy C118 ([4]; 20-fold molar excess of decoy C118): 107.9%
% Uptake reduction in the presence of a decoy C119 ([4]; 20-fold molar excess of decoy C119): 108.6%
% Uptake reduction in the presence of a decoy C120 ([4]; 20-fold molar excess of decoy C120): 104.5%
background binding to untransfected HEK293 cells [5]: low-background binding

{Biotin-PEG4}-CAREKIAALSEIIWLPCLTYAQIQAFIAALNDDPCQSSEILSEAKELCS-NH2 (disulfide 1-35, 17-48) [Compound C290]
% Uptake of C4 [1]: 17%

C41 ({DOTA-PEG4′}-AEALYAQEKIAALSEIIWLPNLTHGQIMAFIAALNNDPSQSSELLSEAEQLNDSQAPG-OH; also: In complexed by DOTA) [Compound C41]
In vitro Stability (mouse) - KBBM [2]: >12
In vitro Stability (mouse) - Plasma [3]: >12

CC[C@H](C)[C@@H]1NC(=O)[C@H](CCCCN)NC(=O)[C@H](CCC(=O)O)NC(=O)[C@H](CCCC[N+](C)(C)C)NC(=O)[C@H](C)NC(=O)[C@@H](NC(=O)CCOCCOCCOCCOCCNC(=O)CCCC[C@@H]2SC[C@@H]3NC(=O)N[C@@H]32)CSSC[C@@H]2NC(=O)[C@@H]3CCCN3C(=O)[C@H](CC(=O)O)NC(=O)[C@H](CC(=O)O)NC(=O)[C@H](CC(N)=O)NC(=O)[C@H](CC(C)C)NC(=O)[C@H](C)NC(=O)[C@H](CCCCNC)NC(=O)[C@H]([C@@H](C)CC)NC(=O)[C@H](Cc3ccccc3)NC(=O)[C@H](C)NC(=O)[C@H](CCCCNC)NC(=O)[C@H]([C@@H](C)CC)NC(=O)[C@H](CCC(N)=O)NC(=O)[C@H](C)NC(=O)[C@H](Cc3ccc(O)cc3)NC(=O)[C@H]([C@@H](C)O)NC(=O)[C@H](CC(C)C)NC(=O)[C@H](CSSC[C@@H](C(=O)N[C@@H](CO)C(N)=O)NC(=O)[C@H](CC(C)C)NC(=O)[C@H](CCC(=O)O)NC(=O)[C@H](CCCCNC)NC(=O)[C@H](C)NC(=O)[C@H](CCC(=O)O)NC(=O)[C@H](CO)NC(=O)[C@H](CC(C)C)NC(=O)[C@H]([C@@H](C)CC)NC(=O)[C@H](CCC(=O)O)NC(=O)[C@H](CO)NC(=O)[C@H](CO)NC(=O)[C@H](CCC(N)=O)NC2=O)NC(=O)[C@@H]2CCCN2C(=O)[C@H](CC(C)C)NC(=O)[C@H](Cc2c[nH]c3ccccc23)NC(=O)[C@H]([C@@H](C)CC)NC(=O)[C@H]([C@@H](C)CC)NC(=O)[C@H](CCC(=O)O)NC(=O)[C@H](CO)NC(=O)[C@H](CC(C)C)NC(=O)[C@H](C)NC(=O)[C@H](C)NC1=O [Compound C306]
In vitro Stability (mouse) - KBBM [6]: >12
In vitro Stability (mouse) - Plasma [7]: >12
background binding to untransfected HEK293 cells [5]: low-background binding

{Biotin-PEG4}-CAREKIAALSEIIWLPCLTYAQIVAFIAALNDDPCQSSEILSEAKELCS-NH2 (disulfide 1-35, 17-48) [Compound C291]
% Uptake of C4 [1]: 30%

CC[C@H](C)[C@@H]1NC(=O)[C@H](Cc2ccccc2)NC(=O)[C@H](C)NC(=O)[C@H](CCCCN(C)C)NC(=O)[C@H]([C@@H](C)CC)NC(=O)[C@H](CCC(N)=O)NC(=O)[C@H](C)NC(=O)[C@H](Cc2ccc(O)cc2)NC(=O)[C@H]([C@@H](C)O)NC(=O)[C@H](CC(C)C)NC(=O)[C@@H]2CSSC[C@@H](C(=O)N[C@@H](CO)C(N)=O)NC(=O)[C@H](CC(C)C)NC(=O)[C@H](CCC(=O)O)NC(=O)[C@H](CCCCN)NC(=O)[C@H](C)NC(=O)[C@H](CCC(=O)O)NC(=O)[C@H](CO)NC(=O)[C@H](CC(C)C)NC(=O)[C@H]([C@@H](C)CC)NC(=O)[C@H](CCC(=O)O)NC(=O)[C@H](C)NC(=O)[C@H](CO)NC(=O)[C@H](CCC(N)=O)NC(=O)[C@H](CSSC[C@H](NC(=O)CCOCCOCCOCCOCCNC(=O)CCCC[C@@H]3SC[C@@H]4NC(=O)N[C@@H]43)C(=O)N[C@@H](C)C(=O)N[C@@H](CCCNC(=N)N)C(=O)N[C@@H](CCC(=O)O)C(=O)N[C@@H](CCCCN)C(=O)N[C@@H]([C@@H](C)CC)C(=O)N[C@@H](C)C(=O)N[C@@H](C)C(=O)N[C@@H](CC(C)C)C(=O)N[C@@H](CO)C(=O)N[C@@H](CCC(=O)O)C(=O)N[C@@H]([C@@H](C)CC)C(=O)N[C@@H]([C@@H](C)CC)C(=O)N[C@@H](Cc3c[nH]c4ccccc34)C(=O)N[C@@H](CC(C)C)C(=O)N3CCC[C@H]3C(=O)N2)NC(=O)[C@@H]2CCCN2C(=O)[C@H](CC(=O)O)NC(=O)[C@H](CC(=O)O)NC(=O)[C@H](CC(N)=O)NC(=O)[C@H](CC(C)C)NC(=O)[C@H](C)NC(=O)[C@H](C)NC1=O [Compound C300]
background binding to untransfected HEK293 cells [5]: low-background binding
